The target in the assay is T1, Orexin/Hypocretin receptor type 1 (Homo sapiens, UniProt O43613).
T1 sequence (O43613 whole entry): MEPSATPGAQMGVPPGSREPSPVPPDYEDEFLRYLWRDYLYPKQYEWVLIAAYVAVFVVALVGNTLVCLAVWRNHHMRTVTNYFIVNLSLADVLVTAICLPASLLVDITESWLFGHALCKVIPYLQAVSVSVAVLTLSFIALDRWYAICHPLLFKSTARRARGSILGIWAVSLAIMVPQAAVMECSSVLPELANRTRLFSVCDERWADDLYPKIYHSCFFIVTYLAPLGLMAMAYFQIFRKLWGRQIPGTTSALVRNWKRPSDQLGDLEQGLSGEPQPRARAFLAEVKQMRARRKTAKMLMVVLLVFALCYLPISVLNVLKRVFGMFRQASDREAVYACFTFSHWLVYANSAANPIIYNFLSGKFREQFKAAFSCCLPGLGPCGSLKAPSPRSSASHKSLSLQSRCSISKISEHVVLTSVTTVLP
In words: In Vitro Activity Assay. The protocol: The cells were centrifuged at 1000 rpm for 5 min, and the supernatant was discarded. 3 mL of PBS was added, and the mixture was gently pipetted to be mixed well. The cells were centrifuged again at 1000 rpm for 5 min, and the supernatant was discarded.

A value given as a limit tells only on which side of the number the result lay.

In the case of `Cc1cc(C)nc(N2C[C@H]3CN(C(=O)c4c(-c5ccsc5)cn5ccccc45)C[C@H]3C2)n1` [US20250188095, Example 17], the IC50 was greater than 1000 nM.
